We go through three compounds from patent US11175282B2, “Method for predicting and monitoring clinical response to immunomodulatory therapy” (BIOHOPE Scientific Solutions for Human Health S.L., priority 2017, dated 2021).

The test system of data set [1] is stimulated human PBMCs. Kind of data set: Liquid media serial dilution assay in standard 96 well microplate, resazurin read-out. The data set is classed as cell-based. How it is done: Human PBMC were extracted for Buffy coat bags from blood bank volunteer donation using density gradient centrifugation in adequate hydrophilic isosmotic polysaccharide solutions with a density of 1.077 g/ml (Pancoll, PAN BIOTECH GmbH or Ficoll, GE Healthcare) at 760 G during 20 minutes at RT. Cells were extracted with pipette from the gradient interphase and then washed in HBSS w/o Ca, Mg and Phenol red (Lonza), and resuspended in X-VIVO 15 (Lonza) medium. Obtained cells were frozen in cryovials with serum free medium (Profreeze-CDM, Lonza) DMSO (Sigma Aldrich) 7.5% and storage until use in liquid nitrogen.
A few days later, removed vials from liquid nitrogen were immediately thawed in a 37° C. water bath for 2 minutes. […] After supernatant discard, cells were re-suspended in X-VIVO medium for further count and viability quantification.
After thawing PBMCs viability was quantified by trypan blue and Neubauer chamber. […]
After 10-12 hours of incubation with presto blue, 100 ul of each well were transferred to a 96 well ELISA plate, and then absorbance at 570 and 620 nm wavelength was quantified in a robotic absorbance microplate reader (Tekan, Infinite F50). Final values were obtained as result of absorbance at 570 nm minus absorbance at 620 nm, following instructions from presto blue manufacturer (Thermo Fisher). […]
In general terms: Resazurin is reduced to fluorescent resorufin, in cell work by metabolically active cells.

Data set [2] has as its system Human activated PBMC. The data set can be described thus: Disc diffusion assay in semisolid media (agarose 0.5% / collagen 0.3% hydrogels), 6 well plates, resazurin read-out. The format is cell-based. Particulars: different disc loads, FIG. 12. How it is done:
PBMC T-Cells were activated though incubation with Dynabeads Human T-activator CD3/CD28 agonistic antibodies (Thermo Fisher, cat #111.32D) using a ratio 1:2 (dynabeads:PBMC) in a cell culture bottle. PBMC in the absent of dynabeads were also cultured as negative control of stimulation.
Paper discs of 6 mm diameter discs were used as immunosuppressant delivery units. Discs were obtained from manual drill of Whatman™, 3 mm CHR chromatography paper sheet or using ready to use commercial paper disc (DDbiolab). Discs were sterilized by autoclave. Immunosupressant drugs (Sigma Aldrich) was dissolved in pure ethanol (Sigma Aldrich) at 20 mg/ml and stored as stock solution at −20° C. till use. […]
Resazurin (blue) transition to resofurin (pink) was monitored with the naked eye or checked after overnight incubation depending on assay design. […] Results were collected through images acquisition with visible light (Sanyo camera S1070 and E1075), ultraviolet light (UVltec Geldoc Gel Light Imaging System) and fluorescence microplate multyreader (PHERAstar® FSX Multimode Microplate Reader from BMG LABTECH or Spark® 10M Tecan.). Inhibitory gradients halos or fronts induced by discs loaded with immunosuppressants were quantified with ImageJ software in a semi-automated process or Spark control v1.2.25 software. […]
(A growth-free zone around the sample is the usual read-out of agar diffusion tests.)

For data set [3], the system named is renal transplanted patient PBMCs. Kind of data set: Immunobiogram: disc diffusion gradient in collagen-methylcellulose hydrogel in 12 channelled well plates, clinical study. The format is cell-based, human. Particulars: patient 211; compared with tacrolimus and prednisone curves; FIG. 31. How it is done:
A multicenter study was conducted with a cohort of 70 renal transplant recipient patients, also 10 healthy volunteers were included for comparison purposes. The inclusion criteria consisted in men and women aged over 18 years with kidney transplant performed at least 1 year prior to inclusion. Patients present different defined and registered immunological risk profiled when included. Transplant patient clinical history includes complete recording of previous and updated immunological relevant data at the inclusion time.
Sample collection for the immunobiogram implementation consisted in two sodium heparin Vacutainer® tubes. Human PBMCs extraction from blood sample was performed using density gradient centrifugation (760 G during 15-20 minutes at RT) in adequate hydrophilic isosmotic polysaccharide solutions with a density of 1.077 g/ml (Pancoll, PAN BIOTECH GmbH or Ficoll, GE Healthcare). Cells were extracted with pipette from the gradient interphase and then washed in HBSS w/o Ca, Mg and Phenol red (Lonza), and resuspended in X-VIVO 15 (Lonza) medium. Obtained cells were frozen in cryovials with serum free medium (Profreeze-CDM, Lonza) DMSO (Sigma Aldrich) 7.5% and storage in liquid nitrogen until use. […] After the supernatant was discarded, cells were re-suspended in X-VIVO medium for further count and viability quantification. […]

The conditions of data set [4]: general solubility profile, no test described; cited from earlier work.

Structures are written as SMILES.

For the compound `CO[C@H]1C[C@@H]2CC[C@@H](C)[C@@](O)(O2)C(=O)C(=O)N2CCCC[C@H]2C(=O)O[C@H]([C@H](C)C[C@@H]2CC[C@@H](OCCO)[C@H](OC)C2)CC(=O)[C@H](C)/C=C(\C)[C@@H](O)[C@@H](OC)C(=O)[C@H](C)C[C@H](C)/C=C/C=C/C=C/1C` [Everolimus], in data set [1] (96 standard wells microplate serial dilutions, all concentration tested, even femtomolar, FIGS. 14 and 15), the “recovery of PBMC proliferative capacity versus positive control” value was “did not recover proliferative capacity comparable with positive control level”. For the same compound, in data set [1] (standard wells, all the concentrations tested (even at femtomolar levels)), the “inhibitory effect over stimulated human PBMCs” value is reported as “at least some inhibitory level effect”. Also, the “inhibitory halos over activated human PBMC” value in data set [2] is “Dose dependant inhibitory halos”.
Take `COc1c(C)c2c(c(O)c1C/C=C(\C)CCC(=O)OCCN1CCOCC1)C(=O)OC2` [MMF, micofenolate]: the Immunobiogram response curve entry in data set [3] is reported as “less responsive”.
For `COc1c(C)c2c(c(O)c1C/C=C(\C)CCC(=O)O)C(=O)OC2` [Mycophenolic acid, Mycophenolic Acid], in data set [2], the “inhibitory halos over activated human PBMC” value is “Dose dependant inhibitory halos”. For the same compound, the aqueous solubility entry in data set [4] is “good aqueous solubility”.
